{"source": "ChEMBL document CHEMBL5370642", "about": "“Synthesis and Bioevaluation of 3-(Arylmethylene)indole Derivatives: Discovery of a Novel ALK Modulator with Antiglioblastoma Activities” (J Med Chem, 2023)", "key": {"[1]": {"test": "Cmax in C57BL6/J mouse at 5 mg/kg, ip measured upto 24 hrs by LC-MS/MS analysis", "assay_type": "ADME, organism-based", "parameters": "time < 24 hrs, dose 5 mg/kg, route ip", "conditions": "in vivo"}, "GL261 [2]": {"test_system": "GL261", "test": "Induction of autophagy in mouse GL261 cells assessed as increase in LC3BII levels at 0.5 to 2 uM incubated for 24 hrs by Western blot analysis", "assay_type": "functional, cell-based", "conditions": "dose 0.5-2 µM"}, "GL261 [3]": {"test_system": "GL261", "test": "Induction of autophagy in mouse GL261 cells transfected with mRFP-GFPLC3 adenovirus assessed as yellow fluorescence pretreated with CQ for 30 mins followed by treated at 2 uM measured after 48 hrs by confocal microscopy", "assay_type": "functional, cell-based"}, "[4]": {"test": "MRT (0 to infinity) in C57BL6/J mouse at 5 mg/kg, ip measured upto 24 hrs by LC-MS/MS analysis", "assay_type": "ADME, organism-based", "conditions": "in vivo"}, "[5]": {"test": "Half life in C57BL6/J mouse at 5 mg/kg, iv measured upto 24 hrs by LC-MS/MS analysis", "assay_type": "ADME, organism-based", "conditions": "in vivo"}, "[6]": {"target": "ALK tyrosine kinase receptor (Mus musculus) (UniProt P97793)", "sequence (P97793 whole entry)": "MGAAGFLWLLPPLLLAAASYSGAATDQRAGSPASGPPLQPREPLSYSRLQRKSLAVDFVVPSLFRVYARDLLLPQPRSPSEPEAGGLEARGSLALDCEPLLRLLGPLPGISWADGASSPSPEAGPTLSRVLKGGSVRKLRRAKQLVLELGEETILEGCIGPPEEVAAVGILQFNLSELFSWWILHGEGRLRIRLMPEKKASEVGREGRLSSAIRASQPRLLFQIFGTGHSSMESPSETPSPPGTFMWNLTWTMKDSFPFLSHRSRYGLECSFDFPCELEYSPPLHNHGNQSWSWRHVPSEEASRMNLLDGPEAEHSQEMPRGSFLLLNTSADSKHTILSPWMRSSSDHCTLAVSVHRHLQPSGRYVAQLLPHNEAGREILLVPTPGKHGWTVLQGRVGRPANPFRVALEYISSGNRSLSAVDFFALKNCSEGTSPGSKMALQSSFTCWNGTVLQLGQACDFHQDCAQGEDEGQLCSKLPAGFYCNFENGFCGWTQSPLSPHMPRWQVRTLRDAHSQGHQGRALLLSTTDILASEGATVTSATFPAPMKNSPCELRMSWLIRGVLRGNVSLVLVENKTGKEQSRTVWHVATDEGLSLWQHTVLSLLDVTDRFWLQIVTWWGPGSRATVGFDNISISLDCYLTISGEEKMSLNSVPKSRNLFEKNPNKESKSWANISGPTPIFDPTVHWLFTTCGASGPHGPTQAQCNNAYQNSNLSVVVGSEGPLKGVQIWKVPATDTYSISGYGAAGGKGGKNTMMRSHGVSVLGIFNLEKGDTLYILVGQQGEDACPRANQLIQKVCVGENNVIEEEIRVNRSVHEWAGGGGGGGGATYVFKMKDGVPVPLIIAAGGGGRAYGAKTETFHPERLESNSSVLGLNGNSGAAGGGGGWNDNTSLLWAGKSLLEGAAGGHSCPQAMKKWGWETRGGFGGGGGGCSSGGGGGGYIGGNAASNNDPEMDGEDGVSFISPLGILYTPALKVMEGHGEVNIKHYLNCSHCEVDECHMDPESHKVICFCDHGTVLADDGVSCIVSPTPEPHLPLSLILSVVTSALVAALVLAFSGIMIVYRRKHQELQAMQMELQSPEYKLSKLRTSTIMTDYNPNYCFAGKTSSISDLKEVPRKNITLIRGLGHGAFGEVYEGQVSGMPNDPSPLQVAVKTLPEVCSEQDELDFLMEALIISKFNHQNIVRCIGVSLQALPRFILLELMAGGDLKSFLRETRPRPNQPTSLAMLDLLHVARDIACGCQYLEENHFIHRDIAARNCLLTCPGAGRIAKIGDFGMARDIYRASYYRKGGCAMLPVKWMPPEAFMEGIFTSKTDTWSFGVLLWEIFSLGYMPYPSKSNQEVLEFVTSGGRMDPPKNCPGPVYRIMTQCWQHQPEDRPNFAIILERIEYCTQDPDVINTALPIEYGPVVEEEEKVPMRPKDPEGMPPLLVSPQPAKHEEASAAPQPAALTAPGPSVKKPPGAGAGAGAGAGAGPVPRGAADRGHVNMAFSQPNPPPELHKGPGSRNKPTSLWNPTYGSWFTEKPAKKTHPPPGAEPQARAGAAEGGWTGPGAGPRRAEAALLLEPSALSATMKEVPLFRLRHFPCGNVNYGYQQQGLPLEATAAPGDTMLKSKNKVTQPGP", "test": "Inhibition of ALK phosphorylation in mouse GL261 cells at 0.5 to 2 uM incubated for 24 hrs by Western blot analysis", "assay_type": "cell-based", "conditions": "dose 0.5-2 µM"}, "GL261 [7]": {"test_system": "GL261", "test": "In vivo induction of autophagy in mouse GL261 cells transfected with mRFP-GFPLC3 adenovirus allografted in C57BL/6J mouse model assessed as LC3 puncta in tumor tissue at 2.5 to 5 mg/kg, ip by immunofluorescence assay", "assay_type": "functional, organism-based", "conditions": "dose 2.5-5 mg/kg"}, "GL261 [8]": {"test_system": "GL261", "test": "Anti-proliferative activity against mouse GL261 cells assessed as cell viability incubated for 2 hrs by CCK8 assay", "assay_type": "functional, cell-based", "conditions": "GL261, 2 h"}, "GL261 [9]": {"test_system": "GL261", "test": "Induction of apoptosis in mouse GL261 cells assessed as necrotic cells measured at 0.5 to 2 uM after 72 hrs by flow cytometry", "assay_type": "functional, cell-based", "conditions": "dose 0.5-2 µM"}, "U-87 MG": {"test_system": "U-87 MG", "test": "Anti-proliferative activity against human U-87 MG cells assessed as decrease in cell viability incubated for 24 to 72 hrs by CCK8 assay", "assay_type": "functional, cell-based", "conditions": "U-87MG ATCC, dose 0.5-10 µM, time 24-72 hrs"}, "[10]": {"target": "ALK tyrosine kinase receptor (Homo sapiens, UniProt Q9UM73)", "sequence (Q9UM73 whole entry)": "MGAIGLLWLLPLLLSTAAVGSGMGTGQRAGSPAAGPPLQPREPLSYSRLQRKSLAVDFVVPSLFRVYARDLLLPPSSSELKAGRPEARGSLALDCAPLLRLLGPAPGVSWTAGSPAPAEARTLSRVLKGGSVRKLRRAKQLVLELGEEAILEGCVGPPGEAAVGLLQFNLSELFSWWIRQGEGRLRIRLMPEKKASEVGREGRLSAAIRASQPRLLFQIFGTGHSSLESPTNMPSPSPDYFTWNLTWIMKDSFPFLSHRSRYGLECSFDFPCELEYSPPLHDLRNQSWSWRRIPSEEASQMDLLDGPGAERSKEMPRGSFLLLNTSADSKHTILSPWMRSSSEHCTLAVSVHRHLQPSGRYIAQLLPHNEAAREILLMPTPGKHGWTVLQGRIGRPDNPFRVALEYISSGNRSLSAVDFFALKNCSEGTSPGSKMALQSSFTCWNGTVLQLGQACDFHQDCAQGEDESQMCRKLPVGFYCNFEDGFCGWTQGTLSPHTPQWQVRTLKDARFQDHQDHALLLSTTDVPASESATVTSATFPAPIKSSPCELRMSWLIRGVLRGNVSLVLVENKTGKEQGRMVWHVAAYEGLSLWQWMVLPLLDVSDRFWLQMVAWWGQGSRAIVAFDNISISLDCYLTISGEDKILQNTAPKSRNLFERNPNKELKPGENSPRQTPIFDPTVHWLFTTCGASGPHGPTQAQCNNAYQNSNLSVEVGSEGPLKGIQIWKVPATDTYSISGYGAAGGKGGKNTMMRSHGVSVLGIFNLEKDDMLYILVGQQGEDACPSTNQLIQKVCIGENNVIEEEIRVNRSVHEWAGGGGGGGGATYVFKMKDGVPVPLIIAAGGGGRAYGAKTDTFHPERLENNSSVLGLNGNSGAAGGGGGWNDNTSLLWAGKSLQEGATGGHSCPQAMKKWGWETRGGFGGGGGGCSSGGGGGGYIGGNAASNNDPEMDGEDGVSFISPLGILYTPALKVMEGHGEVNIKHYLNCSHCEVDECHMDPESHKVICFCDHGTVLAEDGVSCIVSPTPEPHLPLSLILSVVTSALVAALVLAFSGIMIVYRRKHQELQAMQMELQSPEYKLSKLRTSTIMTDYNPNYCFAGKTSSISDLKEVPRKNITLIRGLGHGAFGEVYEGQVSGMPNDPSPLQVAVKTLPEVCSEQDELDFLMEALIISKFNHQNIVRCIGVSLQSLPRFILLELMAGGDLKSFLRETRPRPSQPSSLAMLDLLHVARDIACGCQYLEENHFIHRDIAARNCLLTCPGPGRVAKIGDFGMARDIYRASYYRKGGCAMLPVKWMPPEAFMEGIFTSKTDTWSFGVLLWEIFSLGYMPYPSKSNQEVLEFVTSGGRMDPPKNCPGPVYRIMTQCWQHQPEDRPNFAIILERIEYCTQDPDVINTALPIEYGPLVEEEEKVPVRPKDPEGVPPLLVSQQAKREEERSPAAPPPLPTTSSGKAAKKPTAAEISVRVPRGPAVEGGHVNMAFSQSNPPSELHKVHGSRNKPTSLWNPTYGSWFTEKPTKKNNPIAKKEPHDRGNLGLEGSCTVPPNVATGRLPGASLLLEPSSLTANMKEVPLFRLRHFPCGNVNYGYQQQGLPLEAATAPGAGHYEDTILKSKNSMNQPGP", "test": "Inhibition of human ALK using GF-IRtide as substrate by Kinase-Glo Plus luminescence kinase assay"}, "Mus musculus": {"test_system": "Mus musculus", "test": "Anti glioblastoma activity against mouse GL261-mNeonGreenLuc cells stereotaxically injected in corpus striatum of orthotopic glioblastoma mouse model assessed as increase in survival rate at 5 mg/kg, ip once daily measured on day 21", "assay_type": "functional, organism-based"}, "GL261 [11]": {"test_system": "GL261", "test": "In vivo induction of apoptosis in mouse GL261 cells transfected with mRFP-GFPLC3 adenovirus allografted in C57BL/6J mouse model assessed as increase in cleaved PARP level in tumor tissue at 2.5 to 5 mg/kg, ip by immunofluorescence assay", "assay_type": "functional, organism-based", "conditions": "dose 2.5-5 mg/kg"}, "[12]": {"test": "Drug uptake in C57BL6/J mouse brain at 20 mg/kg, ip measured after 2 hrs by LC-MS/MS analysis", "assay_type": "ADME, organism-based", "conditions": "in vivo"}}, "note": "Active and inactive are the calls of the source. No cut-off for these calls is given here."}
{"smiles": "Cc1ccc(S(=O)(=O)n2cc(Cc3cc(C)c(O)c(C)c3)c3ccccc32)cc1", "values": [{"measurement": "Cmax", "setting": "[1]", "result": 118, "unit": "ng/mL"}, {"measurement": "Activity", "setting": "GL261 [2]", "result": "Active"}, {"measurement": "Activity", "setting": "GL261 [3]", "result": "inactive"}, {"measurement": "MRT inf", "setting": "[4]", "result": 4.6, "unit": "h"}, {"measurement": "half-life", "setting": "[5]", "result": 1.13, "unit": "h"}, {"measurement": "inhibition", "setting": "[6]", "result": "Active"}, {"measurement": "Activity", "setting": "GL261 [7]", "result": "Active"}, {"measurement": "IC50", "setting": "GL261 [8]", "result": 1.35, "unit": "µM"}, {"measurement": "Activity", "setting": "GL261 [9]", "result": "Active"}, {"measurement": "Activity", "setting": "U-87 MG", "result": "Dose-Dependent Effect"}, {"measurement": "IC50", "setting": "[10]", "result": 7, "unit": "µM"}, {"measurement": "Activity", "setting": "Mus musculus", "result": "Active"}, {"measurement": "Activity", "setting": "GL261 [11]", "result": "Active"}, {"measurement": "Drug uptake", "setting": "[12]", "result": 2.7, "unit": "µmol/kg"}]}
